Assays:
Kasumi-1 cells = assay: Kasumi-1 cellular viability assay (ATP-Lite, 72 h); format: cell-based; settings: Homo sapiens, ATP-Lite luminescence, % viability relative to DMSO
How it was run: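 Kasumi-1 AML cells, 15000/well in RPMI-1640 with 10% FBS, were exposed to compound titrations (0.1% final DMSO) for 72 h at 37 °C, 5% CO2. ATP-Lite One Step luminescence gave % viability versus DMSO control, and IC50 came from the concentration-response.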

Caov-3 cells = assay: Caov-3 cellular viability assay (ATP-Lite, 72 h); format: cell-based; settings: Homo sapiens, ATP-Lite luminescence, % viability relative to DMSO
How it was run: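 10000 cells/well treated 72 h at 37 °C, 5% CO2, in RPMI-1640 with 10% FBS and 0.1% DMSO final. Viability by ATP-Lite One Step luminescence. Expressed as % of DMSO control, with IC50 from each compound's concentration-response curve.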

[1] = target: T1, recombinant METTL3/METTL14 complex (Homo sapiens, UniProt Q86U44); assay: METTL3/14 Scintillation Proximity Assay (SPA), RNA methyltransferase activity; format: biochemical; settings: 5.31 nM METTL3/14 complex, 250 nM RNA substrate, 1 μM 3H-SAM, 90 min; for compounds marked * best of the two separated forms
T1 construct: purchased Active Motif 311970; host or cells: Sf9 cells
T1 sequence (Q86U44 whole entry): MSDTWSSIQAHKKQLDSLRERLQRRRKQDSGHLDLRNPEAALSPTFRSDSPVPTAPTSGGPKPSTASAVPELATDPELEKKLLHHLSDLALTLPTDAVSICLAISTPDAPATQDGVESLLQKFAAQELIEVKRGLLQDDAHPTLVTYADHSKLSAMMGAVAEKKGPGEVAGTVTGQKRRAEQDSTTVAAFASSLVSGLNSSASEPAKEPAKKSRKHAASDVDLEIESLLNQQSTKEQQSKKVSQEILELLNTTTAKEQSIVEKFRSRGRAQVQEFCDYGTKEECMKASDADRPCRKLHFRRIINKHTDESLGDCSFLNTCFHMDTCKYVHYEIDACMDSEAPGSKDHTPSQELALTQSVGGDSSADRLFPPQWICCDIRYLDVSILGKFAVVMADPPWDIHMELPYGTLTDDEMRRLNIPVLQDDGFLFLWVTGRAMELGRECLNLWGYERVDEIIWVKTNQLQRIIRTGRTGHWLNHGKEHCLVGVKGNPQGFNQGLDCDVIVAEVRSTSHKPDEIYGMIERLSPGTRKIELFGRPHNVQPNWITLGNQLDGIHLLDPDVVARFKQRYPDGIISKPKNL
T1 sequence (Q9HCE5 whole entry partner): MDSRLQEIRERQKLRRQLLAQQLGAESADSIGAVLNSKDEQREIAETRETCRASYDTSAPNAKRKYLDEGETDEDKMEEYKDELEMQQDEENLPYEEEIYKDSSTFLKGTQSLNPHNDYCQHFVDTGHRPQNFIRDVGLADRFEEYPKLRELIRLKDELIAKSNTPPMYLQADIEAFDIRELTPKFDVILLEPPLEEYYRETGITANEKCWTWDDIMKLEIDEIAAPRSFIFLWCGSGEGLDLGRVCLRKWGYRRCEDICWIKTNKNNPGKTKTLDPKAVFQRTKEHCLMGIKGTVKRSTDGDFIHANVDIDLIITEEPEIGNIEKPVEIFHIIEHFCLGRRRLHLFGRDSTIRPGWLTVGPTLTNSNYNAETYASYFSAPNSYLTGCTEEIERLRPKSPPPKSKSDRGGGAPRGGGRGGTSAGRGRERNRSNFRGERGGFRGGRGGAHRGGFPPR

IC50 [1] [nM]	Compound	IC50 (Kasumi-1 cells) [nM]	IC50 (Caov-3 cells) [nM]
≤ 50	O=C(NC(c1ccc(N2CCC[C@@H](NCC3CCC3)C2)nn1)C(F)(F)F)c1cc(=O)n2ccccc2n1 (single isomer, unassigned) [Compound 065]	> 5000	500 to 5000
≤ 50	CC(c1ccc(N2CCC[C@@H](NCC3CC3)C2)cn1)c1nnc(-c2cncc(C3CC3)c2)s1 (stereo partly drawn) [Compound 359, (3R)—N-(cyclopropylmethyl)-1-(6-(1-(5-(5-cyclopropylpyridin-3-yl)-1,3,4-thiadiazol-2-yl)ethyl)pyridin-3-yl)piperidin-3-amine]	≤ 500	≤ 500
≤ 50	O=C(Nc1cnc2ccccc2n1)C1(c2ccc(N3CCC[C@@H](NCC4CCC4)C3)cn2)COC1 [Compound 297, (R)-3-(5-(3-((cyclobutylmethyl)amino)piperidin-1-Yl)pyridin-2-yl)-N-(quinoxalin-2-yl)oxetane-3-carboxamide]	> 5000	500 to 5000
≤ 50	CC(n1cnc(-c2cncc(N3CCCC3)c2)c1)n1ccc(N2CCC[C@@H](NCC3CC3)C2)cc1=O (mixture of isomers) [Compound 252, 4-((R)-3-((cyclopropylmethyl)amino)piperidin-1-yl)-1-(1-(4-(5-(pyrrolidin-1-yl)pyridin-3-yl)-1H-imidazol-1-yl)ethyl)pyridin-2(1H)-one]	≤ 500	≤ 500
≤ 50	CC(n1cc(-c2cncc(N3CCC(F)(F)C3)n2)nn1)n1ccc(N2CCC[C@@H](NCC3CC3)C2)cc1=O (single isomer, unassigned) [Compound 227]	≤ 500	≤ 500
≤ 50	COc1cncc(-c2cn(C3(c4ccc(N5CCC[C@@H](NCC6CCC6)C5)cn4)COC3)nn2)c1 [Compound 150, (R)-N-(cyclobutylmethyl)-1-(6-(3-(4-(5-methoxypyridin-3-yl)-1H-1,2,3-triazol-1-yl)oxetan-3-yl)pyridin-3-yl)piperidin-3-amine]	≤ 500	≤ 500
≤ 50	CC(c1ccc(N2CCC[C@@H](NCC3CC3)C2)cn1)n1cc(-c2cncc(N3CCCC3)n2)nn1 (single isomer, unassigned) [Compound 259]	≤ 500	≤ 500
≤ 50	CC(c1ccc(N2CCC[C@@H](NCC3CC3)C2)cn1)n1cc(-c2cncc(C3CC3)c2)nn1 (single isomer, unassigned) [Compound 357]	≤ 500	≤ 500
≤ 50	O=C(Nc1cc(=O)n2ccsc2n1)C1(c2ccc(N3CCC[C@@H](NCC4CCC4)C3)cn2)COC1 [Compound 311, (R)-3-(5-(3-((cyclobutylmethyl)amino)piperidin-1-yl)pyridin-2-yl)-N-(5-oxo-5H-thiazolo[3,2-a]pyrimidin-7-yl)oxetane-3-carboxamide]	≤ 500	≤ 500
≤ 50	COc1cc(-c2cn(Cn3ncc(N4CCCC(NCC5CCC5)C4)cc3=O)nn2)c2cn[nH]c2c1 (stereo not drawn) [Compound 028, 5-(3-((cyclobutylmethyl)amino)piperidin-1-yl)-2-((4-(6-methoxy-1H-indazol-4-yl)-1H-1,2,3-triazol-1-yl)methyl)pyridazin-3(2H)-one]	500 to 5000	500 to 5000

The next lines start with the compound.

Compound	IC50 [1] [nM]	IC50 (Kasumi-1 cells) [nM]	IC50 (Caov-3 cells) [nM]
c1cc(C2(n3cc(-c4cncc(N5CCCC5)n4)nn3)COC2)ccc1N1CCC[C@@H](NCC2CCC2)C1 [Compound 301, (R)-N-(cyclobutylmethyl)-1-(4-(3-(4-(6-(pyrrolidin-1-yl)pyrazin-2-yl)-1H-1,2,3-triazol-1-yl)oxetan-3-yl)phenyl)piperidin-3-amine]	≤ 50	≤ 500	≤ 500
c1nnc(-c2cn(C3(c4ccc(N5CCC[C@@H](NCC6CC6)C5)cn4)COC3)nn2)cc1C1CC1 [Compound 343, (R)-N-(cyclopropylmethyl)-1-(6-(3-(4-(5-cyclopropylpyridazin-3-yl)-1H-1,2,3-triazol-1-yl)oxetan-3-yl)pyridin-3-yl)piperdin-3-amine]	≤ 50	500 to 5000	≤ 500
CC(c1ccc(N2CCC[C@@H](NCC3CCC3)C2)nn1)n1cc(-c2cncc(N3CCCC3)n2)nn1 (single isomer, unassigned) [Compound 285]	≤ 50	≤ 500	≤ 500
COc1cncc(-c2cn(C3(c4ccc(N5CCC[C@@H](NCC6CCC6)C5)cc4)COC3)nn2)c1 [Compound 134, (R)-N-(cyclobutylmethyl)-1-(4-(3-(4-(5-methoxypyridin-3-yl)-1H-1,2,3-triazol-1-yl)oxetan-3-yl)phenyl)piperidin-3-amine]	≤ 50	≤ 500	≤ 500
CC1(C)CCN(c2cncc(-c3cn(C4(c5ccc(N6CCC[C@@H](NCC7CC7)C6)cn5)COC4)nn3)n2)C1 [Compound 214, (R)-N-(cyclopropylmethyl)-1-(6-(3-(4-(6-(3,3-dimethylpyrrolidin-1-yl)pyrazin-2-yl)-1H-1,2,3-triazol-1-yl)oxetan-3-yl)pyridin-3-yl)piperidin-3-amine]	≤ 50	≤ 500	≤ 500
CC(n1cc(-c2cncc(N3CC4(CC4)C3)n2)nn1)n1ccc(N2CCC[C@@H](NCC3CC3)C2)cc1=O (single isomer, unassigned) [Compound 247]	≤ 50	≤ 500	≤ 500
COc1cncc(-c2cn(C(C)c3ccc(N4CCC[C@@H](NCC5CCC5)C4)cc3)cn2)c1 (single isomer, unassigned) [Compound 296]	≤ 50	500 to 5000	500 to 5000
CC(n1cnc(-c2cncc(N3CCCC3)n2)c1)n1ccc(N2CCC[C@@H](NCC3CC3)C2)cc1=O (single isomer, unassigned) [Compound 226]	≤ 50	≤ 500	≤ 500
CN(C)c1cncc(-c2cn(C3(c4ccc(N5CCC[C@@H](NCC6CCC6)C5)cn4)COC3)nn2)c1 [Compound 149, (R)-5-(1-(3-(5-(3-((cyclobutylmethyl)amino)piperidin-1-yl)pyridin-2-yl)oxetan-3-yl)-1H-1,2,3-triazol-4-yl)-N,N-dimethylpyridin-3-amine]	≤ 50	≤ 500	≤ 500
COc1cncc(-c2cn([C@H](C)n3ccc(N4CCC[C@@H](NCC5CCC5)C4)cc3=S)nn2)c1 [Compound 116, 4-((R)-3-((cyclobutylmethyl)amino)piperidin-1-yl)-1-((R)-1-(4-(5-methoxypyridin-3-yl)-1H-1,2,3-triazol-1-yl)ethyl)pyridine-2(1H)-thione]	≤ 50	≤ 500	≤ 500
COc1cncc(-c2cn(Cc3ccc(N4CCC[C@@H](NCC5CCC5)C4)nn3)cn2)c1 [Compound 081, (R)-N-(cyclobutylmethyl)-1-(6-((4-(5-methoxypyridin-3-yl)-1H-imidazol-1-yl)methyl)pyridazin-3-yl)piperidin-3-amine]	≤ 50	500 to 5000	≤ 500
CC(c1cnn(-c2cncc(N(C)C)c2)c1)n1ccc(N2CCC[C@@H](NCC3CC3)C2)cc1=O (stereo partly drawn) [Compound 196, 4-((R)-3-((cyclopropylmethyl)amino)piperidin-1-yl)-1-(1-(1-(5-(dimethylamino)pyridin-3-yl)-1H-pyrazol-4-yl)ethyl)pyridin-2(1H)-one]	≤ 50	≤ 500	≤ 500
COc1cncc(-c2cn(C(C)n3ncc(N4CCC[C@@H](NCC5CCC5)C4)cc3=O)nn2)c1 (stereo partly drawn) [Compound 067, 5-((R)-3-((cyclobutylmethyl)amino)piperidin-1-yl)-2-(1-(4-(5-methoxypyridin-3-yl)-1H-1,2,3-triazol-1-yl)ethyl)pyridazin-3(2H)-one]	≤ 50	500 to 5000	500 to 5000
FC1(F)CC(c2ccc(N3CCC[C@@H](NCC4CC4)C3)cn2)(n2cc(-c3cncc(C4CC4)c3)nn2)C1 [Compound 315, (R)-N-(cyclopropylmethyl)-1-(6-(1-(4-(5-cyclopropylpyridin-3-yl)-1H-1,2,3-triazol-1-yl)-3,3-difluorocyclobutyl)pyridin-3-yl)piperidin-3-amine]	≤ 50	500 to 5000	500 to 5000
c1ncc(C2CC2)cc1-c1cn(C2(c3ccc(N4CCC[C@@H](NCC5CC5)C4)cn3)COC2)nn1 [Compound 256, (R)-N-(cyclopropylmethyl)-1-(6-(3-(4-(5-cyclopropylpyridin-3-yl)-1H-1,2,3-triazol-1-yl)oxetan-3-yl)pyridin-3-yl)piperidin-3-amine]	≤ 50	≤ 500	≤ 500
COc1cc(-c2cn(Cc3ccc(N4CCCC(NCC56CC(C)(C5)C6)C4)nn3)nn2)c2cn[nH]c2c1 (stereo not drawn) [Compound 020, 1-(6-((4-(6-methoxy-1H-indazol-4-yl)-1H-1,2,3-triazol-1-yl)methyl)pyridazin-3-yl)-N-((3-methylbicyclo[1.1.1]pentan-1-yl)methyl)piperidin-3-amine]	≤ 50	500 to 5000	500 to 5000
c1cc(C2(n3cc(-c4cncc(N5CCC6(CC6)C5)n4)nn3)COC2)ncc1N1CCC[C@@H](NCC2CC2)C1 [Compound 222, (R)-1-(6-(3-(4-(6-(5-azaspiro[2.4]heptan-5-yl)pyrazin-2-yl)-1H-1,2,3-triazol-1-yl)oxetan-3-yl)pyridin-3-yl)-N-(cyclopropylmethyl)piperidin-3-amine]	≤ 50	≤ 500	≤ 500

Source: patent publication US20250002475A1 (EPICS THERAPEUTICS, priority 2023, published 2025)
